Reference: patent US20230286973A1, “PROTEIN SECRETION INHIBITORS” (KEZAR LIFE SCIENCES, priority 2020, published 2023)

Key:
[1] = Liver Microsome Stability Assay (human); details: human liver microsomes, with NADPH, 1.0 uM compound
Protocol: (§1) Stability of a compound was assessed in the presence of liver microsomes from various sources—mouse, rat, monkey and human liver microsomes. 1.0 uM compound, 0.4% DMSO in 0.1 M Potassium Phosphate with 1.0 mg/mL liver microsomes, were incubated at 37° C. with or without 1 mM NADPH. The samples were quenched at 0, and 30 minutes.

[2] = Liver Microsome Stability Assay (rat); details: rat liver microsomes, with NADPH, 1.0 uM compound
Protocol: as §1

[3] = system: multiple myeloma cell line NCI-H929; experiment: H929 Cell Viability Assay; format: cell-based, human; details: Homo sapiens, NCI-H929, 48 h, NCI-H929 cells, Celltiter-Glo
Summary of the method: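 Luminescent ATP detection (CellTiter-Glo) after 48 hours of compound exposure measures viability. Cells were plated in RPMI 1640 containing 10% fetal bovine serum and kept at 37° C under 5% CO2.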

[4] = system: HER3-ss+4aa/Gaussia Luciferase; experiment: Dox-Induced Her3-ss-Gluc Assay; format: cell-based; details: 24 hr Dox induction; 293FRT/TO cells; read-out: 24 hr Dox Inducible Her3(ss + 4)Gluc 293FRT/TO: Mean IC50
Summary of the method: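 Cells were seeded a day ahead, then given compound diluted in DMSO/media with doxycycline to induce expression of the HER3 signal sequence (+4 aa)–Gaussia luciferase fusion. Incubation was at 37° C., 5% CO2, in a stable Flp-In 293 T-REx line.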

[5] = system: PD1-ss+10aa/Gaussia Luciferase; experiment: Dox-Induced PD1-ss-Gluc Assay; format: cell-based; details: 24 hr Dox induction; 293FRT/TO cells; read-out: 24 hr Dox Inducible PD1ssGluc 293FRT/TO: Mean IC50
Summary of the method: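 Doxycycline-induced expression of a PD1-ss+10aa/Gaussia luciferase reporter is measured in stable Flp-In 293 T-REx cells. Compound dilutions containing doxycycline are added one day after plating and incubated at 37 °C, 5% CO2. Values for unassigned stereocentres refer to stereoisomer mixtures.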

[6] = system: TNFα-FL/Gaussia Luciferase; experiment: Dox Induced TNFα-FL-Gluc Assay; format: cell-based; details: for IC50: 24 hr Dox induction, 293FRT/TO cells, read-out: 24 hr Dox Inducible TNFaFLGluc 293FRT/TO: Mean IC50; for 24 hr Dox Inducible TNFaFLGluc 293FRT/TO: TNF/PD1: ratio of TNFaFLGluc IC50 to PD1ssGluc IC50
Summary of the method: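 Stereoisomer mixtures were tested where stereochemistry is not drawn. Induction used doxycycline added together with compound dilutions in DMSO/media to Flp-In 293 T-REx cells carrying a T-REx-regulated TNFα (aa 1-233)-Gaussia luciferase construct, then incubated at 37 °C, 5% CO2.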

[7] = system: multiple myeloma cell line U266B1; experiment: U266 Cell Viability Assay; format: cell-based, human; details: Homo sapiens, U-266, 48 h, U266B1 cells, Celltiter-Glo
Summary of the method: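 Steps: culture in RPMI 1640 plus 10% FBS and 2 mM glutamine; plate and add compound dilutions; incubate 48 hours at 37° C., 5% CO2; add CellTiter-Glo and quantify luciferase signal.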

[8] = Liver Microsome Stability Assay (monkey); details: monkey liver microsomes, with NADPH, 1.0 uM compound
Protocol: as §1

[9] = system: IL-2-FL/Gaussia Luciferase; experiment: Dox Induced IL2-FL-Gluc Assay; format: cell-based; details: for IC50: 24 hr Dox induction, 293FRT/TO cells, read-out: 24 hr Dox Inducible IL2FLGluc 293FRT/TO: Mean IC50; for 24 hr Dox Inducible IL2FLGluc 293FRT/TO: IL2/PD1: ratio of IL2FLGluc IC50 to PD1ssGluc IC50
Summary of the method: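 Cells are plated one day ahead, then receive compound dilutions in DMSO/media with doxycycline and incubate at 37° C, 5% CO2. They are Flp-In 293 T-REx cells expressing a full-length IL-2 (amino acids 1-153)–Gaussia luciferase fusion under T-REx control.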

[10] = Liver Microsome Stability Assay (mouse); details: mouse liver microsomes, with NADPH, 1.0 uM compound
Protocol: as §1

Compound | Liver Microsome Stability (Multiple Species): Human - % Remaining after 30 min w/NADPH [1] | Liver Microsome Stability (Multiple Species): Rat - % Remaining after 30 min w/NADPH [2] | EC50 [3] | IC50 [4] | IC50 [5] | IC50 [6] | 24 hr Dox Inducible TNFaFLGluc 293FRT/TO: TNF/PD1 [6] | EC50 [7] | Liver Microsome Stability (Multiple Species): Monkey - % Remaining after 30 min w/NADPH [8] | IC50 [9] | 24 hr Dox Inducible IL2FLGluc 293FRT/TO: IL2/PD1 [9] | Liver Microsome Stability (Multiple Species): Mouse - % Remaining after 30 min w/NADPH [10]
CC(=O)N[C@H](C)c1ccc(N2CCC[C@@H]2c2csc(NC(=O)c3cccn3Cc3ccnc(F)c3)n2)cc1 [Compound A70, N-(4-((R)-1-(4-((R)-1-acetamidoethyl)phenyl)pyrrolidin-2-yl)thiazol-2-yl)-1-((2-fluoropyridin-4-yl)methyl)-1H-pyrrole-2-carboxamide] | 2.86% | 7.79% | 385 nM | 18.3 nM | 13.2 nM | 236 nM | 18 | > 25000 nM | 0.83% | 30 nM | 2.3 | 23.7%
C[C@H](N)c1ccc(N2CCC[C@@H]2c2csc(NC(=O)c3cccn3Cc3ccncc3)n2)cc1 [Compound A71, N-(4-((R)-1-(4-((S)-1-aminoethyl)phenyl)pyrrolidin-2-yl)thiazol-2-yl)-1-(pyridin-4-ylmethyl)-1H-pyrrole-2-carboxamide] | 51.8% | 82.1% | 4410 nM | 148 nM | 136 nM | 3700 nM | 27.2 | 7800 nM | 36.1% | 366 nM | 2.7 | 95.6%
C[C@@H](N)c1ccc(N2CCC[C@@H]2c2csc(NC(=O)c3cccn3Cc3ccnc(F)c3)n2)cc1 [Compound A72, N-(4-((R)-1-(4-((R)-1-aminoethyl)phenyl)pyrrolidin-2-yl)thiazol-2-yl)-1-((2-fluoropyridin-4-yl)methyl)-1H-pyrrole-2-carboxamide] | 23.9% | 94.1% | 3770 nM | 197 nM | 141 nM | 2650 nM | 18.8 | 6550 nM | 37.8% | 316 nM | 2.2 | 72.3%
CC(=O)N[C@@H](C)c1ccc(N2CCC[C@@H]2c2csc(NC(=O)c3cccn3Cc3ccncc3)n2)cc1 [Compound A73, N-(4-((R)-1-(4-((S)-1-acetamidoethyl)phenyl)pyrrolidin-2-yl)thiazol-2-yl)-1-(pyridin-4-ylmethyl)-1H-pyrrole-2-carboxamide] | 0.1% | 15% | 3750 nM | 23.6 nM | 26.6 nM | 350 nM | 13.2 | > 25000 nM | 0.08% | 88.5 nM | 3.3 | 0.14%
C[C@H](N)c1ccc(N2CCC[C@@H]2c2csc(NC(=O)c3cccn3Cc3ccnc(F)c3)n2)cc1 [Compound A74, N-(4-((R)-1-(4-((S)-1-aminoethyl)phenyl)pyrrolidin-2-yl)thiazol-2-yl)-1-((2-fluoropyridin-4-yl)methyl)-1H-pyrrole-2-carboxamide] | 38.6% | 98.3% | 3870 nM | 232 nM | 118 nM | 2800 nM | 23.7 | 6130 nM | 38.5% | 367 nM | 3.1 | 94.3%
O=C1CCc2cc(N3CCC[C@@H]3c3csc(NC(=O)c4cccn4Cc4ccncc4)n3)ccc2N1 [Compound A75, (R)-N-(4-(1-(2-oxo-1,2,3,4-tetrahydroquinolin-6-yl)pyrrolidin-2-yl)thiazol-2-yl)-1-(pyridin-4-ylmethyl)-1H-pyrrole-2-carboxamide] | 6.4% | 0.05% | 251 nM | 0.6 nM | 2.5 nM | 71 nM | 28.4 | > 25000 nM | 0.87% | 8.11 nM | 3.2 | 3.74%
CN(C)c1cccc(-c2csc(NC(=O)c3cccn3Cc3ccncc3)n2)c1 [Compound A76, N-(4-(3-(dimethylamino)phenyl)thiazol-2-yl)-1-(pyridin-4-ylmethyl)-1H-pyrrole-2-carboxamide] | 2.44% | 4.99% | 22400 nM | 830 nM | 292 nM | 6660 nM | 22.9 | > 25000 nM | 1.43% | 1510 nM | 5.2 | 11%
CCc1ccc(N2CCC[C@@H]2c2csc(NC(=O)c3cccn3Cc3ccnc(F)c3)n2)cc1 [Compound A77, (R)-N-(4-(1-(4-ethylphenyl)pyrrolidin-2-yl)thiazol-2-yl)-1-((2-fluoropyridin-4-yl)methyl)-1H-pyrrole-2-carboxamide] | 72.8% | 38.1% | 60.1 nM | 3.62 nM | 1.84 nM | 19.1 nM | 10.4 | > 25000 nM | 22.4% | 3.22 nM | 1.8 | 79.6%
